According to article PMC9738062, “Selectively Halogenated Flavonolignans—Preparation and Antibacterial Activity” (International Journal of Molecular Sciences, 2022):
Entries after “also recorded” stand apart in the source; their conditions may differ.

Key:
[1] = test system: Vibrio campbellii BAA 1118 (AI-1); test: microbe, parasite or virus in culture; type: cell-based; settings: for EC50: Vibrio campbellii, BAA1118, 16 h, read-out: EC50 (concentration that halved the communication); for SI (selectivity index): ratio IC50 (viability) / EC50 (communication), BAA 1118
In short: (§1)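 Mutant V. campbellii strains responding only to AI-1 (BAA-1118) or AI-2 (BAA-1119), seeded at 5 × 10^5 CFU/mL in Autoinducer Bioassay medium (potassium phosphate pH 7.0); compounds at final 0.2–200 µM.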

[2] = test system: Vibrio campbellii BAA 1119 (AI-2); test: microbe, parasite or virus in culture; type: cell-based; settings: for EC50: Vibrio campbellii, BAA1119, 16 h, read-out: EC50 (concentration that halved the communication); for SI (selectivity index): ratio IC50 (viability) / EC50 (communication), BAA 1119
In short: as §1

[3] = test system: multidrug-resistant P. aeruginosa; test: Sensitization of antibiotic-resistant bacteria (compound plus breakpoint antibiotic concentration); type: cell-based, Pseudomonas aeruginosa; settings: for Effect on viability in combination with colistin: colistin 2 mg/L; for Effect on viability in combination with colistin / Effect on viability in combination with imipenem: flavonoid 40 µM, 24 h; for Effect on viability in combination with imipenem: imipenem 4 mg/L; on Effect on viability in combination with imipenem: key: -: no effect (100% viability) was observed up to the highest flavonolignan concentration tested (>40 µM); reversion of resistance: the compound reversed the resistant phenotype to a sensitive one
In short: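 A multidrug-resistant clinical isolate of P. aeruginosa, obtained from the General University Hospital in Prague and resistant to colistin and imipenem among other drugs, was grown in Mueller–Hinton broth. Flavonoid derivatives at up to 40 µM were combined with EUCAST breakpoint antibiotic concentrations. MIC was determined per ISO 20776-1: 2020, with viability read as A590 nm after 24 h at 37 °C, 150 rpm.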

[4] = test system: multidrug-resistant S. aureus; test: as above; type: cell-based, Staphylococcus aureus; settings: for Effect on viability in combination with gentamicin: gentamicin 1 mg/L; for Effect on viability in combination with gentamicin / Effect on viability in combination with chloramphenicol: flavonoid 40 µM, 24 h; for Effect on viability in combination with chloramphenicol: chloramphenicol 8 mg/L
In short: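 A multidrug-resistant clinical isolate of S. aureus from the General University Hospital in Prague was grown in Mueller–Hinton broth with flavonoid derivatives combined with a EUCAST breakpoint concentration of antibiotic. MIC was determined according to ISO 20776-1: 2020, and viability was read as absorbance at A590 nm after 24 h at 37 °C and 150 rpm.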

[5] = ABTS cation radical scavenging; settings: vitamin C equivalent antioxidant capacity
In short: (§2)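 ABTS and DPPH radical scavenging gauged antiradical activity. Reducing capacity was measured as reduction of Folin–Ciocalteu reagent and of ferric ions (FRAP).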

[6] = Folin-Ciocalteu reagent reduction; settings: gallic acid equivalents
In short: as §2

[7] = test system: pooled male rat microsomal liver membranes; test: Inhibition of lipid peroxidation induced by tert-butyl hydroperoxide; type: biochemical; settings: male rat microsomes, read-out: ILP IC50
Protocol: The antiradical activity was evaluated by the ability to scavenge ABTS and DPPH radicals. Reducing capacity was assessed by the ability to reduce the Folin–Ciocalteu reagent (FCR) and ferric ions (FRAP). The ability to inhibit lipid peroxidation of pooled male rat microsomal liver membranes induced by tert-butyl hydroperoxide was also evaluated and the results were expressed as IC50 values.

[8] = test system: doxorubicin-resistant human ovarian carcinoma (HOC/DOX); test: Cytotoxicity (resazurin assay, 72 h); type: cell-based; settings: for IC50: Homo sapiens, 72 h, resazurin assay; for SI (selectivity index): ratio IC50 for HDF / IC50 for HOC/DOX
In short: (§3)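 HDF and HOC/DOX cells in DMEM with 10% FBS were treated 24 h after seeding with 31.25–500 µM compound for 72 h at 37 °C. Viability was read by resazurin fluorescence (560/590 nm) after 2 h; IC50 came from nonlinear regression, and selectivity index = IC50(HDF)/IC50(HOC/DOX).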

[9] = test system: human dermal fibroblasts (HDF); test: Cytotoxicity (resazurin assay, 72 h); type: cell-based; settings: Fibroblast
In short: as §3

| SMILES | EC50 [1] [µM] | SI (selectivity index) [1] | EC50 [2] [µM] | SI (selectivity index) [2] | Effect on viability in combination with colistin [3] | Effect on viability in combination with imipenem [3] | Growth in combination with chloramphenicol ([4]; chloramphenicol breakpoint concentration, compound 40 µM as stated in the text) [%] | Effect on viability in combination with gentamicin [4] | ABTS [CEAC] [5] [CEAC] | FCR [GAE] [6] [GAE] | IC50 [7] [µM] | IC50 [8] [µM] | SI (selectivity index) [8] | IC50 [9] [µM] | Effect on viability in combination with chloramphenicol [4] | Colistin-resistant phenotype of P. aeruginosa (result in words) ([3]; colistin breakpoint concentration) | Gentamicin-resistant phenotype of S. aureus (result in words) ([4]; gentamicin breakpoint concentration, compound 40 µM) |
| --- | --- | --- | --- | --- | --- | --- | --- | --- | --- | --- | --- | --- | --- | --- | --- | --- | --- |
| COc1cc([C@@H]2Oc3c(O)cc(-c4oc5cc(O)cc(O)c5c(=O)c4O)cc3[C@H]2CO)ccc1O [compound 6, 2,3-dehydrosilychristin A, reference compound] | 22.3 ± 1 | 1.9 ± 0.2 | 11.1 ± 0.1 | 0.99 ± 0.05 | - | - | 69 | - | 2.10 | 2.43 | 51.9 ± 2.2 | 75.7 ± 8.6 | 0.58 | 44.2 ± 2.1 |  |  |  |
| O=C1c2c(O)cc(O)cc2OC(c2ccc(O)c(O)c2)C1O (centres unmarked) [compound 1, taxifolin, reference compound] | 63.7 ± 2.7 | 1.1 ± 0.1 | 7.3 ± 0.3 | 11.0 ± 0.6 | - | - |  |  | 1.08 ± 0.02 | 1.92 ± 0.05 | 16.3 ± 1.1 | 183 | 0.51 | 93.8 ± 3.7 | - |  |  |
| COc1cc([C@H]2Oc3cc([C@H]4Oc5cc(O)c(Br)c(O)c5C(=O)[C@@H]4O)ccc3O[C@@H]2CO)ccc1O [compound 11, 6-Bromosilybin A] | 24.4 ± 0.7 | 2.1 ± 0.1 | 9.4 ± 0.5 | 5.5 ± 0.3 | - | - |  |  | 0.60 ± 0.04 | 1.06 ± 0.04 | 449 | 186 | 0.51 | 95.6 ± 3 | - |  |  |
| O=c1c(O)c(-c2ccc(O)c(O)c2)oc2c(Br)c(O)c(Br)c(O)c12 [compound 10, 6,8-dibromoquercetin] | 7.3 ± 0.4 | 1.9 ± 0.2 | 0.7 ± 0.02 | 5.0 ± 0.3 | - | - |  | - | 2.63 ± 0.19 | 1.70 ± 0.02 | 28.6 ± 1.1 | 54.2 ± 0.3 | 1.02 | 55 ± 1.9 | - |  |  |
| COc1cc(C2Oc3cc(-c4oc5c(Br)c(O)cc(O)c5c(=O)c4O)ccc3OC2CO)ccc1O (centres unmarked) [compound 16, 8-bromo-2,3-dehydrosilybin AB] | > 200 |  | 6.9 ± 0.3 | 12.7 ± 1.0 | reversion of resistance | - |  | - | 1.15 ± 0.03 | 1.56 ± 0.03 | 49.2 ± 1.9 | 39.4 ± 3.4 | 0.43 | 16.9 ± 0.6 | - | reversed the colistin-resistant phenotype in P. aeruginosa to a sensitive one |  |
| COc1cc([C@@H]2Oc3c(O)cc([C@H]4Oc5cc(O)cc(O)c5C(=O)[C@@H]4O)cc3[C@H]2CO)ccc1O [compound 5, silychristin A, reference compound] | > 200 |  | > 200 |  | - | - |  | - | 1.73 ± 0.02 | 1.87 ± 0.07 | 129 | 205 | 0.56 | 115 | - |  |  |
| COc1cc([C@@H]2Oc3cc([C@H]4Oc5c(Br)c(O)c(Br)c(O)c5C(=O)[C@@H]4O)ccc3O[C@H]2CO)cc(Br)c1O [compound 22, 6,8,21-tribromosilybin B] | 4.3 ± 0.3 | 1.7 ± 0.1 | 12 ± 0.5 | 2.9 ± 0.3 | - | - |  | reversion of resistance | 0.17 ± 0.01 | 1.01 ± 0.04 | 255 | 183 | 0.47 | 85.8 ± 1.1 | - |  | reversed the resistant phenotype to a sensitive one; also recorded: revert the resistant phenotype into a sensitive one |
| COc1cc([C@@H]2Oc3cc([C@H]4Oc5cc(O)cc(O)c5C(=O)[C@@H]4O)ccc3O[C@H]2CO)ccc1O [3b, silybin B, reference compound] | 121.5 ± 0.6 | 0.96 ± 0.01 | 22.3 ± 0.5 | 6.8 ± 0.2 | - | - |  | - | 0.55 ± 0.05 | 1.39 ± 0.08 | 291 | 202 | 0.41 | 83.3 ± 5.4 | - |  |  |
| O=c1c(O)c(-c2ccc(O)c(O)c2)oc2cc(O)cc(O)c12 [compound 2, quercetin, reference compound] | 15.9 ± 0.5 | 1.5 ± 0.1 | 4.8 ± 0.2 | 2.2 ± 0.2 | - | - |  | - | 2.87 ± 0.23 | 2.33 ± 0.05 | 39 ± 2.9 | 182 | 0.30 | 54.8 ± 2.7 | - |  |  |
| O=C1c2c(cc(O)c(Br)c2O)O[C@H](c2ccc(O)c(O)c2)[C@H]1O [compound 7, 6-Bromotaxifolin] | 38.9 ± 1.6 | 1.5 ± 0.1 | 11.9 ± 0.5 | 1.7 ± 0.2 | - | - |  |  | 0.97 ± 0.03 | 1.70 ± 0.01 | 201 | 347 | 0.35 | 122 | - |  |  |
| O=C1c2c(O)c(Br)c(O)c(Br)c2O[C@H](c2ccc(O)c(O)c2)[C@H]1O [compound 8, 6,8-dibromotaxifolin] | 38.1 ± 2 | 1.5 ± 0.1 | 10.1 ± 0.4 | 10.8 ± 0.6 | - | - |  |  | 1.04 ± 0.05 | 2.08 ± 0.04 | 22.5 ± 1 | 233 | 0.68 | 158 | - |  |  |
